The data set has as its system rodent carcinogenicity bioassays, tumor incidence. Nature of the data set: CCRIS carcinogenicity studies. The procedure, abridged:
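NCI-built, expert-reviewed records of carcinogenicity and related test outcomes (mutagenicity, tumor promotion/inhibition) compiled from published and report sources, historical span 1985-2011, not updated.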

Activity calls are given as the source filed them. The rule behind the calls is not given here.

For the molecule `CCCCCCN(C)N=O`, the carcinogen call (Species: HAMSTER, Strain/Sex: SYRIAN/FEMALE, Route: GAVAGE, Dose: 0, 6.2 MG/KG 1/WK FOR 50 WK (TOTAL DOSE: 0; 2.1 MMOL) (STUDY DURATION: LIFETIME), Dose: 0, 6.2 MG/KG 1/WK FOR 50 WK (TOTAL DOSE: 0; 2.1 MMOL) (STUDY DURATION: LIFETIME), Tumor Site: Type of Lesion: LIVER: CHOLANGIOMA, LUNG: ALVEOLAR/BRONCHIAL CARCINOMA, ALVEOLAR/BRONCHIAL ADENOMA, URINARY BLADDER: TRANSITIONAL CELL C, Tumor Site: Type of Lesion: LIVER: CHOLANGIOMA, LUNG: ALVEOLAR/BRONCHIAL CARCINOMA, ALVEOLAR/BRONCHIAL ADENOMA, URINARY BLADDER: TRANSITIONAL CELL C) was “active; positive”; the carcinogen call (Species: HAMSTER, Strain/Sex: SYRIAN/MALE, Route: GAVAGE, Dose: 0, 6.2 MG/KG 1/WK FOR 50 WK (TOTAL DOSE: 0; 2.1 MMOL) (STUDY DURATION: LIFETIME), Dose: 0, 6.2 MG/KG 1/WK FOR 50 WK (TOTAL DOSE: 0; 2.1 MMOL) (STUDY DURATION: LIFETIME), Tumor Site: Type of Lesion: LIVER: HEPATOCELLULAR ADENOMA, CHOLANGIOMA, HEMANGIOSARCOMA, LUNG: ALVEOLAR/ BRONCHIAL ADENOMA, NASAL MUCOSA: CARCINOMA,, Tumor Site: Type of Lesion: LIVER: HEPATOCELLULAR ADENOMA, CHOLANGIOMA, HEMANGIOSARCOMA, LUNG: ALVEOLAR/ BRONCHIAL ADENOMA, NASAL MUCOSA: CARCINOMA) was “active; positive”; the carcinogen call (Species: RAT, Strain/Sex: F344/FEMALE, Route: INTRAVESICULAR, Dose: 0, 3.75 MG IN 0.4 ML ETHANOL: DEIONIZED WATER (1:3) 2/WK FOR 30 WK (TOTAL DOSE 1.6 MMOL) (STUDY DURATION: LIFESPAN), Tumor Site: Type of Lesion: BLADDER: TUMOR, LUNG: SQUAMOUS CELL CARCINOMA, UTERUS: TUMOR, Tumor Site: Type of Lesion: BLADDER: TUMOR, LUNG: SQUAMOUS CELL CARCINOMA, UTERUS: TUMOR) was “active; positive”.
On to `Nc1ccc(Cl)c(N)c1`, for which the carcinogen call is, setting by setting: (Species: MOUSE, Strain/Sex: B6C3F1/FEMALE, Route: ORAL, Dose: 0, 0.7, 1.4% OF DIET, TWA, Dose: 0, 0.7, 1.4% OF DIET, TWA, Tumor Site: Type of Lesion: LIVER: HEPATOCELLULAR ADENOMA OR HEPATOCELLULAR CARCINOMA) “active; positive”; (Species: MOUSE, Strain/Sex: B6C3F1/MALE, Route: ORAL, Dose: 0, 0.7, 1.4% OF DIET, TWA, Dose: 0, 0.7, 1.4% OF DIET, TWA) “inactive; negative”; (Species: RAT, Strain/Sex: F344/FEMALE, Route: ORAL, Dose: 0, 0.2, 0.4% OF DIET, Dose: 0, 0.2, 0.4% OF DIET) “inactive; negative”; (Species: RAT, Strain/Sex: F344/MALE, Route: ORAL, Dose: 0, 0.2, 0.4% OF DIET, Dose: 0, 0.2, 0.4% OF DIET, Tumor Site: Type of Lesion: ADRENAL GLAND: PHEOCHROMOCYTOMA) “active; positive”.
For the molecule `Cc1cc(-c2ccc(N/N=C3/C(=O)c4c(N)cc(S(=O)(=O)O)cc4C=C3S(=O)(=O)O)c(C)c2)ccc1N/N=C1/C(=O)c2c(N)cc(S(=O)(=O)O)cc2C=C1S(=O)(=O)O`, where the note is “Species: RAT, Route: INTRAPERITONEAL, SUBCUTANEOUS, Tumor Site: Type of Lesion: LIVER, INJECTION SITE”, the carcinogen call is “active; positive”.
Consider `CN(C)CCN(Cc1ccccc1)c1ccccn1`, for which the carcinogen call is, setting by setting: (Species: RAT, Strain/Sex: SPRAGUE-DAWLEY/FEMALE, Route: ORAL, Dose: 0, 500, 1000 PPM IN DRINKING WATER 5D/WK FOR LIFE (STUDY DURATION: 493-754 D), Dose: 0, 500, 1000 PPM IN DRINKING WATER 5D/WK FOR LIFE (STUDY DURATION: 493-754 D)) “inactive; negative”; (Species: RAT, Strain/Sex: SPRAGUE-DAWLEY/MALE, Route: ORAL, Dose: 0, 500, 1000 PPM IN DRINKING WATER 5D/WK FOR LIFE (STUDY DURATION: 529-600 D), Dose: 0, 500, 1000 PPM IN DRINKING WATER 5D/WK FOR LIFE (STUDY DURATION: 529-600 D)) “inactive; negative”.
Take `Cc1cc(Cl)ccc1N`: the carcinogen call runs as follows: (Species: MOUSE, Strain/Sex: B6C3F1/FEMALE, Route: ORAL, Dose: 0, 1250, 5000 PPM IN DIET, Dose: 0, 1250, 5000 PPM IN DIET, Tumor Site: Type of Lesion: BLOOD VESSELS: HEMANGIOMA OR HEMANGIOSARCOMA) “active; positive”; (Species: MOUSE, Strain/Sex: B6C3F1/MALE, Route: ORAL, Dose: 0, 3750, 15000 PPM IN DIET, Dose: 0, 3750, 15000 PPM IN DIET, Tumor Site: Type of Lesion: BLOOD VESSELS: HEMANGIOMA OR HEMANGIOSARCOMA) “active; positive”; (Species: RAT, Strain/Sex: F344/FEMALE, Route: ORAL, Dose: 0, 1250, 5000 PPM IN DIET, Dose: 0, 1250, 5000 PPM IN DIET) “inactive; negative”; (Species: RAT, Strain/Sex: F344/MALE, Route: ORAL, Dose: 0, 1250, 5000 PPM IN DIET, Dose: 0, 1250, 5000 PPM IN DIET) “inactive; negative”.
For `c1ccc2c(c1)cc1ccc3c4ccccc4cc4ccc2c1c43`, the carcinogen call (Species: MOUSE, Route: DERMAL, Tumor Site: Type of Lesion: INTEGUMENTARY SYSTEM (SKIN)) is “active; positive” and the carcinogen call (Species: MOUSE, Route: SUBCUTANEOUS, Tumor Site: Type of Lesion: INJECTION SITE) was “active; positive”.
With `CC(C)=CCl`, the carcinogen call (Species: MOUSE, Strain/Sex: B6C3F1/FEMALE, Route: GAVAGE, Dose: 0, 100, 200 MG/KG IN CORN OIL 5 D/WK FOR 102 WK, Dose: 0, 100, 200 MG/KG IN CORN OIL 5 D/WK FOR 102 WK, Tumor Site: Type of Lesion: FORESTOMACH: SQUAMOUS CELL CARCINOMA, SQUAMOUS CELL PAPILLOMA) was “active; positive”; the carcinogen call (Species: MOUSE, Strain/Sex: B6C3F1/MALE, Route: GAVAGE, Dose: 0, 100, 200 MG/KG IN CORN OIL 5 D/WK FOR 102 WK, Dose: 0, 100, 200 MG/KG IN CORN OIL 5 D/WK FOR 102 WK, Tumor Site: Type of Lesion: FORESTOMACH: SQUAMOUS CELL CARCINOMA, SQUAMOUS CELL PAPILLOMA, PREPUTIAL GLAND: SQUAMOUS CELL CARCINOMA) is “active; positive”; the carcinogen call (Species: RAT, Strain/Sex: F344/FEMALE, Route: GAVAGE, Dose: 0, 100, 200 MG/KG IN CORN OIL 5 D/WK FOR 103 WK, Dose: 0, 100, 200 MG/KG IN CORN OIL 5 D/WK FOR 103 WK, Tumor Site: Type of Lesion: NASAL CAVITY: CARCINOMA (NOS), CARCINOMA (NOS) OR SQUAMOUS CELL CARCINOMA, ADENOCARCINOMA, ESOPHAGUS: SQUAMOUS CELL CARC) was “active; positive”; the carcinogen call (Species: RAT, Strain/Sex: F344/MALE, Route: GAVAGE, Dose: 0, 100, 200 MG/KG IN CORN OIL 5 D/WK FOR 103 WK, Dose: 0, 100, 200 MG/KG IN CORN OIL 5 D/WK FOR 103 WK, Tumor Site: Type of Lesion: NASAL CAVITY: CARCINOMA (NOS), SQUAMOUS CELL CARCINOMA, ADENOCARCINOMA, ESOPHAGUS: SQUAMOUS CELL PAPILLOMA, SQUAMOUS CEL) was “active; positive”.
Turning to `CCN(Cc1cccc(S(=O)(=O)[O-])c1)c1ccc(C(=C2C=CC(=[N+](C)C)C=C2)c2ccc(N(CC)Cc3cccc(S(=O)(=O)O)c3)cc2)cc1`, the carcinogen call (Species: MOUSE, Strain/Sex: SWISS-WEBSTER/FEMALE, Route: DERMAL, Dose: 0, 1% IN 0.1 ML DISTILLED WATER 1/WK FOR 18 MO (STUDY DURATION: 18 MO)) is “inactive; negative”; the carcinogen call (Species: MOUSE, Strain/Sex: SWISS-WEBSTER/MALE, Route: DERMAL, Dose: 0, 1% IN 0.1 ML DISTILLED WATER 1/WK FOR 18 MO (STUDY DURATION: 18 MO)) is “inactive; negative”; the carcinogen call (Species: RAT, Route: ORAL, Tumor Site: Type of Lesion: MAMMARY GLAND, INTEGUMENTARY SYSTEM (SKIN)) was “active; positive”; the carcinogen call (Species: RAT, Route: SUBCUTANEOUS, Tumor Site: Type of Lesion: INJECTION SITE) is “active; positive”.
Turning to `O=S(=O)(O)OCc1c2ccccc2cc2c1ccc1ccccc12`, the carcinogen call (Species: RAT, Strain/Sex: SPRAGUE-DAWLEY/FEMALE, Route: SUBCUTANEOUS, Dose: 0, 0.2 UMOL IN SESAME OIL:DMSO (9:1) 3/WK FOR 20 DOSES (STUDY DURATION: 52 WK), Tumor Site: Type of Lesion: INJECTION SITE: SARCOMA) was “active; positive”.

The record behind these values is PubChem BioAssay AID1259411 (Chemical Carcinogenesis Research Information System (CCRIS), 2018).
